Experimental data as given in patent US7749984B2, “Computer-based model for identification and characterization of non-competitive inhibitors of nicotinic acetylcholine receptors and related ligand-gated ion channel receptors” (priority 2003, dated 2010).
Where two headings read alike, the source gives them in different places.

How the values were obtained:
α3β4 nAChR [1] = biological target: T1, α3β4 nAChR (Rattus norvegicus, UniProt P04757+P12392); assay: biochemical; format: binding; parameters: host or cells: HEK293 (KXα3β4R2); details: for K′: chromatographic (NLC and van't Hoff); for ΔG° / ΔH° / ΔS°: chromatographic (van't Hoff)
T1 sequence (P04757 26-499): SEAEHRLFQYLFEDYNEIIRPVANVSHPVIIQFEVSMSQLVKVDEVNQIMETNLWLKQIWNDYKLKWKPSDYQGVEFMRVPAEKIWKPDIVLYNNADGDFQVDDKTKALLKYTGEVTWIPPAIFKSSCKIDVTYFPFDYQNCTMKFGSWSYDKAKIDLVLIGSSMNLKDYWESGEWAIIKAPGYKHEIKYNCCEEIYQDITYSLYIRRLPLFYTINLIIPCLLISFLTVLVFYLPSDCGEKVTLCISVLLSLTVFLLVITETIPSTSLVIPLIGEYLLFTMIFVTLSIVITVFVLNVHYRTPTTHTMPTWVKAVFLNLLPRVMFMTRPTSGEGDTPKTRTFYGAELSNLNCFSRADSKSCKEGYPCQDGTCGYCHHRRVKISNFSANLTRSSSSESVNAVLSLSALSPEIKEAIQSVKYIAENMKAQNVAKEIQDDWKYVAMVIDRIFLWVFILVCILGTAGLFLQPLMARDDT
T1 sequence (P12392 21-495): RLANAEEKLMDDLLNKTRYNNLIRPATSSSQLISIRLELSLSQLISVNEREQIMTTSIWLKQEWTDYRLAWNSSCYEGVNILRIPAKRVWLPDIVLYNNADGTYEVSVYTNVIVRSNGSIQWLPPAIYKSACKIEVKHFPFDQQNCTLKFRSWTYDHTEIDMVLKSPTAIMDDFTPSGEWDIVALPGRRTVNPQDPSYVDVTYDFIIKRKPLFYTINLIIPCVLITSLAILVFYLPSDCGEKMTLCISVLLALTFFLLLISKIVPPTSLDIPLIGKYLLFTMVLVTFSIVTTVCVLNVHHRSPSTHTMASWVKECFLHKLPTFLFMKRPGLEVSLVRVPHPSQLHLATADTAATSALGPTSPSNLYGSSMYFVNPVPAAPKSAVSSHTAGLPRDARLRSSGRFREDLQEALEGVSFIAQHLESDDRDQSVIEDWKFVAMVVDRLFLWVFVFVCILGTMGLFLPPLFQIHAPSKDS

α3β4 nAChR [2] = biological target: T1, α3β4 nAChR; assay: Nicotine-stimulated 86Rb+ efflux assay, KXα3β4R2 cell line; format: cell-based; parameters: host or cells: HEK293 (KXα3β4R2)
Method: After the prediction has been done based on clustering the actual values of IC50 were determined using the nicotine-stimulated ^86Rb^+ efflux assay on cell line KXα3β4R2.

nAChR, SH-SY5Y cells = assay: Rb+ efflux assay, SH-SY5Y cells; format: cell-based, human; details: cell line SH-SY5Y
nAChR, PC-12 cells = assay: Rb+ efflux assay, PC-12 cells; format: cell-based, rat; details: cell line PC-12
K177 (α4β2) = K177 (α4β2) (Homo sapiens, UniProt P17787+P43681); assay: Rb+ efflux assay, K177 cells
K177 (α4β2), sequence (P43681 27-627): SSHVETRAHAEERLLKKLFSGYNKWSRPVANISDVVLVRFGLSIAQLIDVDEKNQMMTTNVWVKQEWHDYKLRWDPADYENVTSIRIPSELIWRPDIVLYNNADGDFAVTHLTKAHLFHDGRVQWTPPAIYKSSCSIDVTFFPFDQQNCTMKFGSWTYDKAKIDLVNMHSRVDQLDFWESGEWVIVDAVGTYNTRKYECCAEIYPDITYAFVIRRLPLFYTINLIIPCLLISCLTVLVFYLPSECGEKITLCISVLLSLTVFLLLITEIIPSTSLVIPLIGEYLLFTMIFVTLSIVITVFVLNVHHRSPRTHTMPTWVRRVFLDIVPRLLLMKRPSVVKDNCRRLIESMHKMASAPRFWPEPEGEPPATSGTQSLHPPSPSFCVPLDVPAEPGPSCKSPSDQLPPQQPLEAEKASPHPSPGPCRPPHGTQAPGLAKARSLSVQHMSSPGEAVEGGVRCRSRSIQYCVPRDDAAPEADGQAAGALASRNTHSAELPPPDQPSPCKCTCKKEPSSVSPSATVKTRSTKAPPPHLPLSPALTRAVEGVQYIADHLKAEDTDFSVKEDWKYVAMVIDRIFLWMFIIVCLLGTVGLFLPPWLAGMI
K177 (α4β2), sequence (P17787 26-502): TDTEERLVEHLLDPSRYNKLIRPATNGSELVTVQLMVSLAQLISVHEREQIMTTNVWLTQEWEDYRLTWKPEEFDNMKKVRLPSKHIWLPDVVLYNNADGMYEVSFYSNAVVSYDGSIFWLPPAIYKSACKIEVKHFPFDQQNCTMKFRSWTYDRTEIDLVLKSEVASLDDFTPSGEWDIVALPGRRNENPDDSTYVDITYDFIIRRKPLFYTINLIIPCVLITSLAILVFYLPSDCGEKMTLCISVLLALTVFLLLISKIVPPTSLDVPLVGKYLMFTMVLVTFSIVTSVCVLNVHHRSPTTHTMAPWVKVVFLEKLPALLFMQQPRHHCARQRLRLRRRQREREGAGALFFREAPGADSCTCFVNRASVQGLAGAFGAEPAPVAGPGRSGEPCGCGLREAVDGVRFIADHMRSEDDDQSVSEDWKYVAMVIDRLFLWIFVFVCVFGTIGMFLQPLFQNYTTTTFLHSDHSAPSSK

α3β4 nAChR [3] = biological target: T1, α3β4 nAChR; details: nicotine concentration of ~300 μM or higher; cited from earlier work
[4] = α3β4 nAChR, NLC, read-out: koff dissociation constant rate
[5] = α3β4 nAChR, NLC, read-out: kon association constant rate
[6] = α3β4 nAChR, NLC, read-out: log K chromatographic equilibrium constant (converted)
[7] = α3β4 nAChR, 10 μM, 20 μl injected, ammonium acetate 10 mM pH 7.4/methanol 85:15
[8] = nicotine-stimulated 86Rb+ efflux, cell line KXα3β4R2, read-out: IC50
[9] = IC50, nicotine-stimulated 86Rb+ efflux, cell line KXα3β4R2
[10] = chromatographic (NLC), read-out: Koff
[11] = chromatographic (NLC), read-out: Kon
[12] = chromatographic (NLC), read-out: logKa (converted)
[13] = IC50, nicotine stimulated Rb+ efflux
[14] = IC50, nicotine-stimulated 86Rb+ efflux, α3β4 nAChR
[15] = IC50 of Rb+ efflux, cell line KXα3β4R2

Compound | koff (α3β4 nAChR [1]; [4]) | kon (α3β4 nAChR [1]; [5]) | Kd (α3β4 nAChR [1]; [6]) | k′(NLC) retention capacity factor (α3β4 nAChR [1]; [7]) | other results
COc1ccc(CCNCCCC(C#N)(c2ccc(OC)c(OC)c2)C(C)C)cc1OC (single isomer, unassigned) [nor-verapamil-R, nor-verapamil] | 0.58 s⁻¹ | 1.6e+07 M⁻¹ s⁻¹ | 36.3 nM | 97.99 | –
COc1ccc(CCNCCCC(C#N)(c2ccc(OC)c(OC)c2)C(C)C)cc1OC (single isomer, unassigned) [nor-verapamil-S, nor-verapamil] | – | – | 39.8 nM | 97.86 | koff dissociation constant rate (α3β4 nAChR [1]; α3β4 nAChR, NLC): 0.61 s⁻¹
COc1ccc2c(c1)[C@@]13CCCC[C@H]1[C@@H](C2)NCC3 [3 MM] | – | – | – | 56.47 | koff dissociation constant rate (α3β4 nAChR [1]; α3β4 nAChR, NLC): 1.00 s⁻¹; log K chromatographic equilibrium constant (α3β4 nAChR [1]; α3β4 nAChR, NLC): 7.28 M^−1
CNCCCC(C#N)(c1ccc(OC)c(OC)c1)C(C)C [Compound D-617] | – | – | – | 22.22 | koff dissociation constant rate (α3β4 nAChR [1]; α3β4 nAChR, NLC): 2.72 s⁻¹; log K chromatographic equilibrium constant (α3β4 nAChR [1]; α3β4 nAChR, NLC): 6.74 M^−1
COc1ccc(C(C#N)(CCCN)C(C)C)cc1OC [Compound D-620] | – | – | – | 17.72 | logk′ (α3β4 nAChR [1]; α3β4 nAChR): 1.25; koff dissociation constant rate (α3β4 nAChR [1]; α3β4 nAChR, NLC): 3.43 s⁻¹; log K chromatographic equilibrium constant (α3β4 nAChR [1]; α3β4 nAChR, NLC): 6.53 M^−1; IC50 (α3β4 nAChR [2]; [8]): 48900 nM
CN(C)CCN1C(=O)[C@H](O)[C@H](c2ccc(O)cc2)Sc2ccccc21 [Compound M4] | – | – | – | – | logk′ (α3β4 nAChR [1]; α3β4 nAChR): 1.45; IC50 (α3β4 nAChR [2]; [8]): 73200 nM
CNCCN1C(=O)[C@H](O)[C@H](c2ccc(O)cc2)Sc2ccccc21 [Compound M6] | – | – | – | – | logk′ (α3β4 nAChR [1]; α3β4 nAChR): 1.48; IC50 (α3β4 nAChR [2]; [8]): 63100 nM
CNCCN1C(=O)[C@H](OC(C)=O)[C@H](c2ccc(OC)cc2)Sc2ccccc21 [MA] | – | – | – | – | logk′ (α3β4 nAChR [1]; α3β4 nAChR): 1.61; IC50 (α3β4 nAChR [2]; [8]): 4200 nM
C[C@]12N[C@H](Cc3ccccc31)c1ccccc12 [MK-801] | 3.48 s⁻¹ | 2.71e+07 M⁻¹ s⁻¹ | 129 nM | 19.10 | –
CC(=O)Nc1ccc(O)cc1 [acetaminophen] | 17.2 s⁻¹ | 8.4e+06 M⁻¹ s⁻¹ | 2040 nM | 5.30 | –
CC(=O)Nc1ccccc1 [acetanilide] | 25.5 s⁻¹ | 8.2e+06 M⁻¹ s⁻¹ | 3090 nM | 5.95 | –
NC12CC3CC(CC(C3)C1)C2 [amantadine] | 6.73 s⁻¹ | 3.08e+07 M⁻¹ s⁻¹ | 219 nM | 8.98 | –
CCOC(=O)C1=C(COCCN)NC(C)=C(C(=O)OC)C1c1ccccc1Cl (stereo not drawn) [amlodipine] | – | – | – | – | IC50 (α3β4 nAChR [2]; [9]): 5800 nM
CC(NC(C)(C)C)C(=O)c1cccc(Cl)c1 (stereo not drawn) [bupropion] | 5.14 s⁻¹ | 2.87e+07 M⁻¹ s⁻¹ | 178 nM | 12.97 | IC50 (nAChR, SH-SY5Y cells): 1400 nM
COc1ccc2c(c1)[C@]13CCCC[C@@H]1[C@H](C2)N(C)CC3 [dextromethorphan] | 1.01 s⁻¹ | 2.37e+07 M⁻¹ s⁻¹ | 42.7 nM | 61.30 | difference in ΔG of the complexes (α3β4 nAChR [1]; DM vs LM, chromatographic experiments): 0.3 kcal/mol; K′ (α3β4 nAChR [1]): 61.30 (±0.27); Ka (α3β4 nAChR [1]; chromatographic (NLC)): 23.40 (±0.36) μM^−1; koff (α3β4 nAChR [1]; [10]): 1.01 s⁻¹; kon (α3β4 nAChR [1]; [11]): 2.37e+07 M⁻¹ s⁻¹; Kd (α3β4 nAChR [1]; [12]): 42.7 nM; ΔG° (α3β4 nAChR [1]): −2.33 (±0.4) kcal mol^−1; ΔH° (α3β4 nAChR [1]): −6.92 (±0.19) kcal mol^−1; ΔS° (α3β4 nAChR [1]): −15.70 (±0.7) cal mol^−1T^−1; IC50 (α3β4 nAChR [2]; [13]): 10100 nM; IC50 (α3β4 nAChR [2]; [14]): 10000 nM; IC50 (α3β4 nAChR [2]; [15]): 10100 nM
CN1CC[C@@]23CCCC[C@@H]2[C@@H]1Cc1ccc(O)cc13 [dextrorphan] | 2.3 s⁻¹ | 2.07e+07 M⁻¹ s⁻¹ | 112 nM | – | –
COc1ccc([C@@H]2Sc3ccccc3N(CCN(C)C)C(=O)[C@@H]2OC(C)=O)cc1 [dilthiazem] | – | – | – | 43.53 | logk′ (α3β4 nAChR [1]; α3β4 nAChR): 1.64; koff dissociation constant rate (α3β4 nAChR [1]; α3β4 nAChR, NLC): 1.60 s⁻¹; log K chromatographic equilibrium constant (α3β4 nAChR [1]; α3β4 nAChR, NLC): 7.22 M^−1; IC50 (α3β4 nAChR [2]; cell line KXα3β4R2, read-out: IC50 of Rb+ efflux): 2260 nM; IC50 (α3β4 nAChR [2]; [8]): 2200 nM; IC50 (α3β4 nAChR [2]; nicotine-stimulated 86Rb+ efflux, α3β4 nAChR, read-out: IC50): 2300 nM

Compound | koff (α3β4 nAChR [1]; [4]) | kon (α3β4 nAChR [1]; [5]) | Kd (α3β4 nAChR [1]; [6]) | k′(NLC) retention capacity factor (α3β4 nAChR [1]; [7]) | other results
COc1ccc(C(=O)O)cc1OC [dimethoxybenzoic ac., 3,4-dimethoxybenzoic acid] | 18.2 s⁻¹ | 9.8e+06 M⁻¹ s⁻¹ | 1860 nM | 4.46 | –
O=C(O)c1ccc([N+](=O)[O-])cc1[N+](=O)[O-] [dinitrobenzoic acid, 2,4-dinitrobenzoic acid] | – | – | – | 7.77 | Kd (α3β4 nAChR [1]; log K chromatographic equilibrium constant, α3β4 nAChR, NLC): 1350 nM; koff dissociation constant rate (α3β4 nAChR [1]; α3β4 nAChR, NLC): 12.12 s⁻¹
CC[n+]1c(-c2ccccc2)c2cc(N)ccc2c2ccc(N)cc21 [ethidium] | 0.18 s⁻¹ | 3.59e+07 M⁻¹ s⁻¹ | 5.01 nM | 191.82 | –
COc1ccc(CCN(C)CCCC(C#N)(c2cc(OC)c(OC)c(OC)c2)C(C)C)cc1OC (stereo not drawn) [galapamil] | – | – | – | 75.93 | logk′ (α3β4 nAChR [1]; α3β4 nAChR): 1.88; koff dissociation constant rate (α3β4 nAChR [1]; α3β4 nAChR, NLC): 0.74 s⁻¹; log K chromatographic equilibrium constant (α3β4 nAChR [1]; α3β4 nAChR, NLC): 7.43 M^−1; IC50 (α3β4 nAChR [2]; [8]): 6400 nM
CNC1(c2ccccc2Cl)CCCCC1=O (stereo not drawn) [ketamine] | 8.5 s⁻¹ | 3.84e+07 M⁻¹ s⁻¹ | 224 nM | 8.25 | IC50 (nAChR, SH-SY5Y cells): 1400 nM; IC50 (nAChR, PC-12 cells): 5200 nM
COc1ccc(CC2c3cc(OC)c(OC)cc3CCN2C)cc1OC (stereo not drawn) [laudanosine] | 2.18 s⁻¹ | 2.5e+07 M⁻¹ s⁻¹ | 87.1 nM | 22.87 | –
COc1ccc2c(c1)[C@@]13CCCC[C@H]1[C@@H](C2)N(C)CC3 [levomethorphan] | 1.55 s⁻¹ | 1.86e+07 M⁻¹ s⁻¹ | 83.2 nM | 35.81 | K′ (α3β4 nAChR [1]): 35.81 (±0.15); Ka (α3β4 nAChR [1]; chromatographic (NLC)): 12.01 (±0.23) μM^−1; koff (α3β4 nAChR [1]; [10]): 1.55 s⁻¹; kon (α3β4 nAChR [1]; [11]): 1.86e+07 M⁻¹ s⁻¹; Kd (α3β4 nAChR [1]; [12]): 83.2 nM; ΔG° (α3β4 nAChR [1]): −2.04 (±0.4) kcal mol^−1; ΔH° (α3β4 nAChR [1]): −6.59 (±0.18) kcal mol^−1; ΔS° (α3β4 nAChR [1]): −15.20 (0.6) cal mol^−1T^−1; IC50 (α3β4 nAChR [2]; [13]): 10900 nM; IC50 (α3β4 nAChR [2]; [15]): 10900 nM
CNC1(C)C2CCC(C2)C1(C)C (stereo not drawn) [mecamylamine] | – | – | – | – | k′(NLC) retention capacity factor (α3β4 nAChR [1]; pH 7.4): 10.89
CC12CC3CC(C)(C1)CC(N)(C3)C2 [memantine] | 3.45 s⁻¹ | 1.88e+07 M⁻¹ s⁻¹ | 182 nM | 16.71 | IC50 (K177 (α4β2)): 6600 nM
CCC(=O)C(CC(C)N(C)C)(c1ccccc1)c1ccccc1 (stereo not drawn) [methadone] | 1.37 s⁻¹ | 1.59e+07 M⁻¹ s⁻¹ | 87.1 nM | 44.45 | IC50 (α3β4 nAChR [2]; [15]): 1900 nM
CN[C@@H](C)Cc1ccccc1 [methamphetamine] | 6.81 s⁻¹ | 2.91e+07 M⁻¹ s⁻¹ | 234 nM | 8.38 | –
COC(=O)C1=C(C)NC(C)=C(C(=O)OCCN(C)Cc2ccccc2)C1c1cccc([N+](=O)[O-])c1 (stereo not drawn) [nicardapine] | – | – | – | – | logk′ (α3β4 nAChR [1]; α3β4 nAChR): 2.33; IC50 (α3β4 nAChR [2]; [8]): 2500 nM
CN1CCCC1c1cccnc1 (stereo not drawn) [nicotine] | – | – | – | – | maximum 86Rb+ efflux (α3β4 nAChR [3]): ~45 % of the amount loaded
COc1ccc(CCNCCCC(C#N)(c2ccc(OC)c(OC)c2)C(C)C)cc1OC (stereo not drawn) [nor-verapamil] | – | – | – | – | enantioselectivity of binding towards nicotinic affinity column (α3β4 nAChR [1]; chromatographic experiments and NLC data): did not exhibit noticeable differences between enantiomers; logk′ (α3β4 nAChR [1]; α3β4 nAChR): 1.99; IC50 (α3β4 nAChR [2]; [9]): 2600 nM; IC50 (α3β4 nAChR [2]; [14]): 2100 nM; IC50 (α3β4 nAChR [2]; [15]): 2600 nM
CCCCC1C(=O)N(c2ccccc2)N(c2ccccc2)C1=O [phenylbutazone] | 22.2 s⁻¹ | 8.7e+06 M⁻¹ s⁻¹ | 2570 nM | – | –
c1ccc(C2(N3CCCCC3)CCCCC2)cc1 [phenylcyclidine] | 2.69 s⁻¹ | 2.32e+07 M⁻¹ s⁻¹ | 115 nM | 24.06 | IC50 (nAChR, SH-SY5Y cells): 5900 nM; IC50 (α3β4 nAChR [2]; [15]): 7000 nM
